{"source": "patent US11634447B2", "about": "(priority 2012, dated 2023)", "tested_on": "bacterial strain LF82 binding to the glycoprotein BSA-(Mannose)3", "assay": "Bacterial Binding Assay (BBA)", "format": "cell-based, Escherichia coli", "conditions": "read-out: Bacterial Binding Assay IC50, LF82/Luciferase strain binding to BSA-(Man)3 coated plates, luminescence", "method_in_brief": "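Inhibition of LF82/luciferase E. coli adhesion is read as luminescence after washing off unbound cells. Compound and bacteria (10^7 per well) are co-incubated 40-75 min at room temperature on wells coated with 0.5-2 μg/mL BSA-(Man)3, with BSA-only wells as background; IC50 values derived.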", "data": [{"smiles": "OC[C@H]1O[C@H](Cc2ccc(-c3ccc(C[C@H]4O[C@H](CO)[C@@H](O)[C@H](O)[C@@H]4O)cc3)cc2)[C@@H](O)[C@@H](O)[C@@H]1O", "note": "[Compound 41, ((2R,3S,4R,5S,6R)-2-(Hydroxymethyl)-6-[[4-[4-[[(2R,3S,4R,5S,6R)-3,4,5-trihydroxy-6-(hydroxymethyl)tetrahydropyran-2-yl]methyl]phenyl]phenyl]methyl]tetrahydropyran-3,4,5-triol)]", "values": [{"measurement": "IC50", "value": 0.55, "unit": "µM"}]}]}
